# Publication PMC12302228 (RSC Medicinal Chemistry, 2025)
# Where two headings read alike, the source gives them in different places.
# How the values were obtained:
# M21 = test: Antiproliferative activity, SRB assay; format: cell-based, human; settings: mean ± SEM
# HL-60 = test: Antiproliferative activity, MTT assay; format: cell-based, human; settings: mean ± SEM
# THP-1 = test: Antiproliferative activity, MTT assay; format: cell-based, human; settings: mean ± SEM
# HT-1080 = test: Antiproliferative activity, SRB assay; format: cell-based, human; settings: read-out: IC50 HT-1080; 48 h of treatment; mean ± SEM
# physchem = settings: ultrapure water, 37 °C, kinetic from dmso stock
# MCF7 = test: Antiproliferative activity, SRB assay; format: cell-based, human; settings: mean ± SEM
# HT-29 = test: Antiproliferative activity, SRB assay; format: cell-based, human; settings: mean ± SEM
# MOLM-13 = test: Antiproliferative activity, MTT assay; format: cell-based, human; settings: read-out: IC50 MOLM-13; 48 h of treatment; mean ± SEM
# [1] = read-out: IC50 M21, 48 h of treatment
# [2] = read-out: IC50 HL-60, 48 h of treatment
# [3] = read-out: IC50 THP-1, 48 h of treatment
# [4] = read-out: IC50 MCF7, 48 h of treatment
# [5] = read-out: IC50 HT-29, 48 h of treatment
# [6] = Homo sapiens, M21, 48 h, read-out: IC50 M21, 48 h of treatment
# [7] = Homo sapiens, MCF7, 48 h, read-out: IC50 MCF7, 48 h of treatment
# [8] = Homo sapiens, HT-29, 48 h, read-out: IC50 HT-29, 48 h of treatment
# [9] = Homo sapiens, HL-60, 48 h, read-out: IC50 HL-60, 48 h of treatment
# [10] = Homo sapiens, THP-1, 48 h, read-out: IC50 THP-1, 48 h of treatment
SMILES,IC50 (M21; [1]),IC50 (HL-60; [2]),IC50 (THP-1; [3]),IC50 (HT-1080),solubility at 24 h (physchem),IC50 (MCF7; [4]),IC50 (HT-29; [5]),IC50 (MOLM-13),IC50 (M21; [6]),IC50 (MCF7; [7]),IC50 (HT-29; [8]),IC50 (HL-60; [9]),IC50 (THP-1; [10])
"CCCNC(=O)Nc1ccc(S(=O)(=O)Oc2cccnc2C(C)C)cc1.Cl [Compound 25, 2-Isopropylpyridin-3-yl 4-(3-propylureido)benzenesulfonate hydrochloride]",20 ± 1 µM,8 ± 3 µM,2.4 ± 0.9 µM,2.4 ± 0.2 µM,26 ± 3 µg/mL,16 ± 1 µM,15 ± 0.8 µM,1.9 ± 0.5 µM,–,–,–,–,–
"O=C(NCCCl)Nc1ccc(S(=O)(=O)Oc2cccnc2Br)cc1 [Compound 9, 2-Bromopyridin-3-yl 4-(3-(2-chloroethyl)ureido)benzenesulfonate]",–,12 ± 1 µM,1.2 ± 0.5 µM,–,56 ± 2 µg/mL,–,–,–,23 ± 1 µM,16 ± 1 µM,17 ± 1 µM,–,–
"CCNC(=O)Nc1ccc(S(=O)(=O)Oc2cnccc2I)cc1 [Compound 13, 4-Iodopyridin-3-yl 4-(3-ethylureido)benzenesulfonate]",–,–,–,–,63 ± 1 µg/mL,–,–,–,9 ± 1 µM,15 ± 2 µM,12 ± 1 µM,25 ± 7 µM,1.8 ± 0.5 µM
"CCCNC(=O)Nc1ccc(S(=O)(=O)Oc2cccnc2I)cc1.Cl [Compound 24, 2-Iodopyridin-3-yl 4-(3-propylureido)benzenesulfonate hydrochloride]",–,–,–,–,120 ± 10 µg/mL,–,–,–,29 ± 2 µM,22 ± 2 µM,28 ± 2 µM,30 ± 10 µM,3.9 ± 0.7 µM
"CCNC(=O)Nc1ccc(S(=O)(=O)Oc2cnccc2C)cc1.Cl [Compound 32, 4-Methylpyridin-3-yl 4-(3-ethylureido)benzenesulfonate hydrochloride]",35 ± 4 µM,> 100 µM,2.9 ± 0.1 µM,5.9 ± 0.7 µM,98 ± 7 µg/mL,26 ± 2 µM,9.6 ± 0.7 µM,2.4 ± 0.3 µM,–,–,–,–,–
"CCCNC(=O)Nc1ccc(S(=O)(=O)Oc2cccnc2C)cc1 [Compound 8, 2-Methylpyridin-3-yl 4-(3-propylureido)benzenesulfonate]",–,35 ± 7 µM,–,5.1 ± 0.5 µM,44 ± 1 µg/mL,–,–,–,69 ± 3 µM,19 ± 2 µM,70 ± 8 µM,–,3.5 ± 0.9 µM
"CCCNC(=O)Nc1ccc(S(=O)(=O)Oc2cccnc2Br)cc1 [Compound 5, 2-Bromopyridin-3-yl 4-(3-propylureido)benzenesulfonate]",24 ± 2 µM,19 ± 2 µM,5.9 ± 0.5 µM,3.3 ± 0.2 µM,8 ± 1 µg/mL,13 ± 1 µM,17 ± 1 µM,2.6 ± 0.1 µM,–,–,–,–,–
"Cl.O=C(NCCCl)Nc1ccc(S(=O)(=O)Oc2cnccc2I)cc1 [Compound 36, 4-Iodopyridin-3-yl 4-(3-(2-chloroethyl)ureido)benzenesulfonate hydrochloride]",3.5 ± 0.4 µM,3 ± 1 µM,0.9 ± 0.2 µM,1.2 ± 0.2 µM,154 ± 7 µg/mL,3.8 ± 0.3 µM,2.3 ± 0.1 µM,0.7 ± 0.2 µM,–,–,–,–,–
"CCCNC(=O)Nc1ccc(S(=O)(=O)Oc2cnccc2I)cc1.Cl [Compound 34, 4-Iodopyridin-3-yl 4-(3-propylureido)benzenesulfonate hydrochloride]",21 ± 2 µM,> 50 µM,2.1 ± 0.6 µM,5.9 ± 0.5 µM,130 ± 10 µg/mL,13 ± 1 µM,14 ± 1 µM,2.7 ± 0.5 µM,–,–,–,–,–
"CCCNC(=O)Nc1ccc(S(=O)(=O)Oc2cnccc2Br)cc1.Cl [Compound 33, 4-Bromopyridin-3-yl 4-(3-propylureido)benzenesulfonate hydrochloride]",40 ± 1 µM,40 ± 10 µM,4.1 ± 0.7 µM,10 ± 0.8 µM,124 ± 2 µg/mL,24 ± 2 µM,30 ± 1 µM,6 ± 1 µM,–,–,–,–,–
"CCNC(=O)Nc1ccc(S(=O)(=O)Oc2cnccc2Br)cc1.Cl [Compound 30, 4-Bromopyridin-3-yl 4-(3-ethylureido)benzenesulfonate hydrochloride]",44 ± 3 µM,80 ± 5 µM,6 ± 2 µM,6.7 ± 0.4 µM,122 ± 4 µg/mL,45 ± 4 µM,45 ± 4 µM,3.7 ± 0.5 µM,–,–,–,–,–
"Cl.O=C(NCCCl)Nc1ccc(S(=O)(=O)Oc2cccnc2I)cc1 [Compound 28, 2-Iodopyridin-3-yl 4-(3-(2-chloroethyl)ureido)benzenesulfonate hydrochloride]",15 ± 1 µM,19 ± 4 µM,1.8 ± 0.7 µM,3.1 ± 0.2 µM,37 ± 2 µg/mL,13 ± 1 µM,21 ± 1 µM,2.4 ± 0.4 µM,–,–,–,–,–
